# Reference: article PMC6540241, “Targeting Tumor Markers with Antisense Peptides: An Example of Human Prostate Specific Antigen” (International Journal of Molecular Sciences, 2019)
# Where a SMILES comes first, the peptide text is derived from it. The star is where a group is joined. Biotin = O=C1N[C@H]2[C@H](CS[C@H]2CCCCC(=O)*)N1
# Test system: human prostate specific antigen (hPSA) in prostate cancer tissue
# Experiment: Immunohistochemical staining of hPSA, protocol 2 (biotinylated peptide instead of primary antibody)
# Design: key to overall quality of scoring (NordiQC) / hPSA staining quality score (NordiQC): 3: Staining reaction considered perfect or close to perfect.; 2: Staining reaction considered fully acceptable. The protocol may be optimized to ensure the best staining intensity and signal-to-noise ratio.; 1: Staining considered insufficient.; 0: Staining considered very insufficient
# Procedure: Immunohistochemistry was performed on deparafinized slides (xylen and a series of ethanol solutions) at room temperature (20–25 °C). The phosphate-buffered saline (PBS) was used, with a pH of 7.2 and containing disodium hydrogen phosphate, sodium chloride, potassium chloride and potassium dihydrogen phosphate was used. PBS stock solution: 4 g KH2PO4, 23 g Na2HPO4, 4 g KCl, 160 g NaCl and 810 mL distilled water. Before staining, 100 mL of stock solution was diluted with 1900 mL of distilled water.
# All slides (from seven patients) were selected from the repository of prostate cancer tissue, with diagnosis confirmed by consensus of two independent pathologists. The two pathologists who examined the slides stained with antisense peptides were unconnected with the pathologists who established the initial diagnosis.
# Each of the two immunohistochemistry protocols for PSA staining consisted of six steps. Steps 1, 4, 5 and 6 of protocol 1 and protocol 2 were identical, while steps 2 and 3 differed (Figure 5 and Figure 6). For this study, the slides were kept in the dark at room temperature (20–25 °C), to prevent fading as a result of exposure to strong light. They were analyzed using an Olympus BX41 microscope, with an Olympus DP71 camera set to three levels of magnification: less than 40×, 100×, and 500×.
# The staining protocol 2 was a modified IHC protocol 1, as follows: In step 2 we used antisense peptide Biotin-AVRDKVG, instead of the primary monoclonal mouse anti-human PSA antibody, in step 3 we used rabbit polyclonal antibody to biotin conjugated to HRP, instead of HRP labeled polymer conjugated to goat anti-mouse immunoglobulins (Figure 5), with peptide Biotin-EHFRW as a negative control (Figure 7). Otherwise, the procedures and chemicals were identical. Quality control for the PSA staining was investigated using NordiQC scoring criteria: 0—Poor; 1—Borderline; 2—Good; 3—Optimal. The scale is presented in Table A2, and the final results given in Table 4 are expressed as a sum of scores.
# IHC staining―protocol 2: • The specimen was covered with peroxidase block, i.e., 100 μL of 0.03% hydrogen peroxide containing sodium azide (Dako, Glostrup, Denmark), and incubated for four minutes. Following this, the specimen was gently rinsed with phosphate buffered saline (PBS), and placed in a fresh buffer bath. • Biotinylated antisense peptide AVRDKVG (GenScript, Piscataway, NJ, USA) directed to PSA epitope 53–59 (RHSLFHP) was used to cover the specimen. Five milligrams of Biotin-AVRDKVG antisense was diluted in 2.5 mL PBS. Dilutions 1:10, 1:50, 1:100, 1:200 and 1:500 were applied to cover the specimen. A 100 μL volume was used per section. After 30 min of incubation, each specimen was gently rinsed with PBS and placed in a fresh buffer bath. • Anti-biotin antibody conjugated to HRP (ab34645, Abcam, Cambridge, UK) was applied to cover the specimen. Of the antibody 10 mg/2 mL was diluted 1:100. One hundred microliters of the diluted antibody was applied to cover each specimen, followed by a 30 min incubation. After the incubation, the specimen was gently rinsed with PBS and placed in a fresh buffer bath. • The specimen was covered with 100 μL of AEC + substrate-chromogen solution for 10 min, i.e., 3-amino-9-ethylcarbazole containing hydrogen peroxide, stabilizers, enhancers and an anti-microbial agent (Dako, Glostrup, Denmark). After that period the specimen was again rinsed with PBS. • The slides were immersed in a bath of aqueous hematoxylin (Mayerr’s hematoxylin), and rinsed gently in a distilled water bath. The slides were dipped 10 times into a bath of ammonia (0.037 mol/L), and then rinsed in a bath of distilled water for four minutes. • The specimens were mounted and coverslipped with non-aqueous permanent mounting medium Ultramount.
smiles,measurement,setting,value
CC(C)[C@H](NC(=O)[C@H](C)NC(=O)CCCC[C@@H]1SC[C@@H]2NC(=O)N[C@@H]21)C(=O)N[C@@H](CCCNC(=N)N)C(=O)N[C@@H](CC(=O)O)C(=O)N[C@@H](CCCCN)C(=O)N[C@H](C(=O)NCC(=O)O)C(C)C [Biotin-AVRDKVG] (Biotin-AVRDKVG-OH),signal to noise ratio versus standard monoclonal antibody,compared with primary monoclonal mouse anti-human PSA antibody,comparable to the standard primary monoclonal mouse anti-human PSA antibody
same,hPSA staining quality score (NordiQC),"dilution 1:10 (of 5 mg in 2.5 mL PBS), patient 1",0
same,hPSA staining quality score (NordiQC),"dilution 1:10, patient 2",0
same,hPSA staining quality score (NordiQC),"dilution 1:10, patient 3",0
same,hPSA staining quality score (NordiQC),"dilution 1:10, patient 4",0
same,hPSA staining quality score (NordiQC),"dilution 1:10, patient 5",0
same,hPSA staining quality score (NordiQC),"dilution 1:10, patient 6",0
same,hPSA staining quality score (NordiQC),"dilution 1:10, patient 7",0
same,Sum of scores (NordiQC),"dilution 1:10, seven patients",0
same,hPSA staining quality score (NordiQC),"dilution 1:50, patient 1",1
same,hPSA staining quality score (NordiQC),"dilution 1:50, patient 2",1
same,hPSA staining quality score (NordiQC),"dilution 1:50, patient 3",2
same,hPSA staining quality score (NordiQC),"dilution 1:50, patient 4",1
same,hPSA staining quality score (NordiQC),"dilution 1:50, patient 5",1
same,hPSA staining quality score (NordiQC),"dilution 1:50, patient 6",1
same,hPSA staining quality score (NordiQC),"dilution 1:50, patient 7",1
same,Sum of scores (NordiQC),"dilution 1:50, seven patients",8
same,staining of prostate cancer tissue,dilution 1:100,solid staining signal with minimal or absent background noise
same,hPSA staining quality score (NordiQC),"dilution 1:100, patient 1",2
same,hPSA staining quality score (NordiQC),"dilution 1:100, patient 2",2
same,hPSA staining quality score (NordiQC),"dilution 1:100, patient 3",3
same,hPSA staining quality score (NordiQC),"dilution 1:100, patient 4",2
same,hPSA staining quality score (NordiQC),"dilution 1:100, patient 5",3
same,hPSA staining quality score (NordiQC),"dilution 1:100, patient 6",2
same,hPSA staining quality score (NordiQC),"dilution 1:100, patient 7",2
same,Sum of scores (NordiQC),"dilution 1:100, seven patients",16
same,hPSA staining quality score (NordiQC),"dilution 1:200, patient 1",0
same,hPSA staining quality score (NordiQC),"dilution 1:200, patient 2",1
same,hPSA staining quality score (NordiQC),"dilution 1:200, patient 3",1
same,hPSA staining quality score (NordiQC),"dilution 1:200, patient 4",1
same,hPSA staining quality score (NordiQC),"dilution 1:200, patient 5",1
same,hPSA staining quality score (NordiQC),"dilution 1:200, patient 6",1
same,hPSA staining quality score (NordiQC),"dilution 1:200, patient 7",1
same,Sum of scores (NordiQC),"dilution 1:200, seven patients",6
same,hPSA staining quality score (NordiQC),"dilution 1:500, patient 1",0
same,hPSA staining quality score (NordiQC),"dilution 1:500, patient 2",0
same,hPSA staining quality score (NordiQC),"dilution 1:500, patient 3",0
same,hPSA staining quality score (NordiQC),"dilution 1:500, patient 4",0
same,hPSA staining quality score (NordiQC),"dilution 1:500, patient 5",0
same,hPSA staining quality score (NordiQC),"dilution 1:500, patient 6",0
same,hPSA staining quality score (NordiQC),"dilution 1:500, patient 7",0
same,Sum of scores (NordiQC),"dilution 1:500, seven patients",0
same,staining of prostate cancer tissue,dilutions 1:10 and 1:50,increase in background noise
same,staining of prostate cancer tissue,dilutions 1:200 and 1:500,loss of staining signal
same,non-specific staining of prostate tissue,high concentration (1:10),increase in background
same,overall quality of scoring (NordiQC),overall,2
